Results reported in patent publication US6376169B1, “Method for diagnosing a vascular condition” (Queens University at Kingston, priority 1998, dated 2002).
“Also recorded” adds a separate entry of the source.

What was measured:
PAI-1 mRNA = assay: Northern blot of PAI-1 mRNA in HTR-8/SVneo cells; format: cell-based, human; settings: for increase in PAI-1 mRNA (3.0-kb and 2.3-kb transcripts): 24 hours in the presence of compound
Experimental: To determine whether hypoxia regulates the expression of certain genes (e.g., PAI-1, uPAR, RTP/Drg1) via an iron-containing heme protein, cells were cultured for up to 72 h at 20% oxygen in the presence or absence of either 100 μM cobalt chloride, or 30 mM sodium 4,5-dihydroxybenzene-1,3-disulfonate (Tiron), or 100 μM desferrioxamine mesylate (DFO) (Sigma Chemical CO., St. Louis, Mo.). Further confirmation of the role of a heme protein in hypoxic responses can be achieved by culturing cells under hypoxia in the presence of carbon monoxide, which maintains the heme protein in the oxy state and thereby blocks heme protein-mediated hypoxic responses. […]
Northern Blot Analysis. Total RNA was isolated from cell lines as described above. Aliquots of 20 μg were denatured and subjected to electrophoresis in 1% agarose-formaldehyde gels (Sambrook, J., Fritsch, E. F., and Maniatis, T. Molecular Cloning: A Laboratory Manual, Cold Spring Harbor Laboratory, Cold Spring Harbor, N.Y. (1989)). RNA was transferred to nylon membranes (Micron Separations, Inc., Westboro, Mass.). After prehybridization at 42° C. for 2-3 h in 50% formamide, 5×Denhardt's solution, 0.5% sodium dodecyl sulfate (SDS), 6×SSC (1×SSC: 0.15M NaCl, 15 mM sodium citrate, pH 7.0), and 100 μg/mL denatured salmon sperm DNA, membranes were hybridized for a period of time of overnight (˜18 h) to about 72 h at 42° C. with a cDNA probe (e.g., RTP/Drg1, PAI-1 (PAI-1 cDNA provided by Dr. Keith McCrae, Temple University School of Medicine, Philadelphia, Pa.), uPAR (Higazi A, et al., J Biol Chem 266:12752, (1995)) pre-labeled with [^32P]-dCTP using a Pharmacia Oligolabelling kit (Pharmacia Biotech, Piscataway, N.J.). The hybridization solution contained 6×SSC, 0.5% SDS, 100 μg/mL denatured salmon sperm DNA, 50% formamide and cDNA probe. […] Bands on radiographic film were analyzed using a SigmaGel gel analysis software package (Jandel Scientific Software, San Rafael, Calif.). […]

RTP/Drg1 mRNA = assay: Northern blot of RTP/Drg1 mRNA in MDA-MB-231 cells; format: cell-based, human; settings: for effect on hypoxic up-regulation of RTP/Drg1 mRNA: 1% oxygen + 30% CO, 24 h; for effect of CO on up-regulation of RTP/Drg1 mRNA induced by cobalt chloride, Tiron and DFO: hypoxic conditions with CO; for levels of RTP/Drg1 mRNA: 20% oxygen, up to 72 h, 100 μM cobalt chloride, 30 mM Tiron or 100 μM DFO
Experimental: To determine whether hypoxia regulates the expression of certain genes (e.g., PAI-1, uPAR, RTP/Drg1) via an iron-containing heme protein, cells were cultured for up to 72 h at 20% oxygen in the presence or absence of either 100 μM cobalt chloride, or 30 mM sodium 4,5-dihydroxybenzene-1,3-disulfonate (Tiron), or 100 μM desferrioxamine mesylate (DFO) (Sigma Chemical CO., St. Louis, Mo.). Further confirmation of the role of a heme protein in hypoxic responses can be achieved by culturing cells under hypoxia in the presence of carbon monoxide, which maintains the heme protein in the oxy state and thereby blocks heme protein-mediated hypoxic responses. Thus, cells were also cultured for 24 h at 37° C. under hypoxic conditions in the presence of 30% carbon monoxide.
Northern Blot Analysis. Total RNA was isolated from cell lines as described above. Aliquots of 20 μg were denatured and subjected to electrophoresis in 1% agarose-formaldehyde gels (Sambrook, J., Fritsch, E. F., and Maniatis, T. Molecular Cloning: A Laboratory Manual, Cold Spring Harbor Laboratory, Cold Spring Harbor, N.Y. (1989)). RNA was transferred to nylon membranes (Micron Separations, Inc., Westboro, Mass.). After prehybridization at 42° C. for 2-3 h in 50% formamide, 5×Denhardt's solution, 0.5% sodium dodecyl sulfate (SDS), 6×SSC (1×SSC: 0.15M NaCl, 15 mM sodium citrate, pH 7.0), and 100 μg/mL denatured salmon sperm DNA, membranes were hybridized for a period of time of overnight (˜18 h) to about 72 h at 42° C. with a cDNA probe (e.g., RTP/Drg1, PAI-1 (PAI-1 cDNA provided by Dr. Keith McCrae, Temple University School of Medicine, Philadelphia, Pa.), uPAR (Higazi A, et al., J Biol Chem 266:12752, (1995)) pre-labeled with [^32P]-dCTP using a Pharmacia Oligolabelling kit (Pharmacia Biotech, Piscataway, N.J.). The hybridization solution contained 6×SSC, 0.5% SDS, 100 μg/mL denatured salmon sperm DNA, 50% formamide and cDNA probe. After hybridization, the membranes were washed with 2×SSC and 0.5% SDS at room temperature for 15 min, 2×SSC and 0.1% SDS at room temperature for 15 min, and 0.1×SSC and 0.5% SDS for 30 min. Dupont Reflection NEF film (Dupont Canada, Inc., Mississauga, ON) was exposed to the membranes for 1-3 days at −80° C. Bands on radiographic film were analyzed using a SigmaGel gel analysis software package (Jandel Scientific Software, San Rafael, Calif.).

cell-associated uPA = assay: Zymography of cell-associated plasminogen activators in MDA-MB-231 cell extracts; format: cell-based, human
Experimental: To assess the levels of plasminogen activators associated with cells cultured for 24 h under 20% and 1% O2, extracts were prepared by disrupting trypsinized cell pellets with 2% SDS in Tris-buffered saline (TBS; 10 mM Tris, 0.15 M NaCl, pH 7.5) using a Polytron homogenizer (Brinkmann Instruments, Rexdale, ON, Canada). The homogenates were centrifuged at 15,000 g for 15 min to remove insoluble materials and 100 μg of extracted protein were analyzed by casein-plasminogen gel zymography as described above.

uPAR [1] = assay: uPAR protein and mRNA in cancer cells (Example 1); format: cell-based; settings: 24 hours, standard conditions; 100 μM cobalt chloride; Tiron
uPAR [2] = assay: Binding of [125I]-prourokinase to HTR-8/SVneo cells (uPAR expression); format: cell-based, human; settings: for Kd: Kd of [125I]-prourokinase on cells cultured with compound, read-out: Kd (nM) ± SEM; for Bmax (sites/cell) ± SEM: [125I]-prourokinase binding to cells cultured with compound; for increase in the expression of uPAR: flow cytometric and radioligand binding studies
Experimental: Determination of uPAR expression by urokinase binding analysis. Measurement of uPAR expression by ligand binding analysis was performed using [^125I]-prourokinase as the ligand, as described (Zini J M, et al., Blood 79:2917 (1992)). Prourokinase was radiolabeled with ^125I, using Iodobeads, to a specific radioactivity of at least 10^6 cpm/μg. Cells were then chilled to 4° C., washed with cold PBS containing 1% BSA, and incubated for 2 h with increasing concentrations of[^125I]-prourokinase in the absence (to determine total binding) or presence (to determine non-specific binding) of a 100-fold molar excess of unlabeled prourokinase. Specific binding was defined as the difference between total and non-specific binding, and analyzed by non-linear curve fitting methods (least squares method) using the Kaliedograph software program (Synergy Software, Reading, Pa.).

For `[C-]#[O+]` [carbon monoxide], the “effect on hypoxia-mediated increase in PAI-1 mRNA levels” value (PAI-1 mRNA; 1% oxygen + 20% carbon monoxide, 24 hours) was “prevented most of the hypoxia-mediated increase in PAI-1 mRNA levels; also recorded: abolished the effect of hypoxia on PAI-1 mRNA levels”, the “effect on hypoxic up-regulation of RTP/Drg1 mRNA” value (RTP/Drg1 mRNA) was “abrogated” and the “effect on hypoxic up-regulation of RTP/Drg1 mRNA” value (RTP/Drg1 mRNA; listed as CO) was “substantial decrease in mRNA levels”. The “effect of CO on up-regulation of RTP/Drg1 mRNA induced by cobalt chloride, Tiron and DFO” value (RTP/Drg1 mRNA) was “did not inhibit”, the “effect of CO on up-regulation of RTP/Drg1 mRNA induced by cobalt chloride, Tiron and DFO” value (RTP/Drg1 mRNA; listed as CO) was “unable to inhibit” and the “effect on hypoxic increase in cell-associated uPA” value (cell-associated uPA; 1% O2 + 30% CO, listed as CO) was “abrogated the hypoxic increase in cell-associated uPA; also recorded: prevented the effect of hypoxia on cell-associated uPA increases”.

With `[Cl][Co][Cl]` [cobalt chloride] the “increase in PAI-1 mRNA (3.0-kb and 2.3-kb transcripts)” value (PAI-1 mRNA) was “about 2 fold”, the “uPAR protein and mRNA levels” value (uPAR [1]) was “elevated uPAR protein and mRNA levels” and the “levels of RTP/Drg1 mRNA” value (RTP/Drg1 mRNA) was “time-dependent increases in RTP/Drg1 mRNA”. The “cell-associated uPA levels” value (cell-associated uPA; culture with cobalt chloride) was “increased cell-associated uPA”, the Kd (uPAR [2]) was 3.58 ± 0.69 nM and the “Bmax (sites/cell) ± SEM” value (uPAR [2]) was 285,711 ± 38,324 sites/cell. For the same compound, the “increase in the expression of uPAR” value (uPAR [2]; cobalt chloride) was 28%.

`O=S(=O)([O-])c1cc(O)c(O)c(S(=O)(=O)[O-])c1.[Na+].[Na+]` [Tiron, sodium 4,5-dihydroxybenzene-1,3-disulfonate] was tested, and the “increase in PAI-1 mRNA (3.0-kb and 2.3-kb transcripts)” value (PAI-1 mRNA) was “substantial increase”, the “levels of RTP/Drg1 mRNA” value (RTP/Drg1 mRNA) was “time-dependent increases in RTP/Drg1 mRNA” and the Kd (uPAR [2]) was 8.08 ± 1.11 nM. For the same compound, the “increase in the expression of uPAR” value (uPAR [2]; Tiron) was 3 fold and the “Bmax (sites/cell) ± SEM” value (uPAR [2]) was 623,213 ± 102,360 sites/cell.
